Measurements published in paper PMC5784442 (ACS catalysis, 2017).

Assays:
[1] = molecular target: T1, ‘TesA (Escherichia coli, UniProt P0ADA1); test: X-ray crystal structure, […] A; assay type: binding; details: 3 mM octanoic acid, Homo-PIPES pH 5.0
T1 sequence (P0ADA1 27-208): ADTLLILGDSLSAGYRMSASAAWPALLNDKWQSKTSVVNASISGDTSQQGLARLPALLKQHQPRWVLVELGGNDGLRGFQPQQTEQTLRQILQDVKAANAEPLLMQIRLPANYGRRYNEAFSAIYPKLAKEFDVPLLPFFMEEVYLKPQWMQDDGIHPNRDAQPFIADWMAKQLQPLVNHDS

[2] = molecular target: T1, ‘TesA; test: DTNB assay at […] nm, free CoA release; assay type: biochemical; details: 0-120 µM substrate, 40 nM enzyme

Row | SMILES | X-ray crystal structure, 1.65 A [1] | DTNB assay at 412 nm, free CoA release [2]
1 | CCCCCCCC(=O)O [C8, octanoic acid] | Crystal structures of WT ‘TesA and R3.M4 bound to octanoic acid were solved | 
2 | CCCCCCCC(=O)SCCNC(=O)CCNC(=O)[C@H](O)C(C)(C)COP(=O)(O)OP(=O)(O)OC[C@H]1O[C@@H](n2cnc3c(N)ncnc32)[C@H](O)[C@@H]1OP(=O)(O)O [C8-CoA, octanoyl-CoA] |  | ‘TesA WT and R3.M4 activity on C8-CoA
3 | CCCCCCCCCCCC(=O)SCCNC(=O)CCNC(=O)[C@H](O)C(C)(C)COP(=O)(O)OP(=O)(O)OC[C@H]1O[C@@H](n2cnc3c(N)ncnc32)[C@H](O)[C@@H]1OP(=O)(O)O [C12-CoA, dodecanoyl-CoA] |  | highest in vitro ‘TesA WT activity (Figure 7A) was observed for C12-CoA, C14-CoA and C16-CoA
